Test results as given in PubChem BioAssay (NCI).
Where “and” joins values, the source holds several entries; their conditions need not be identical. Equal values may be shown once.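 Protocol summary: plate cells (96-well), add compound at 5 concentrations, incubate 48 h, interpolate endpoints linearly. GI50 is the concentration that inhibits growth by half. TGI marks complete inhibition of growth.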

Tests used:
Assay in all cases: DTP human tumour cell line panel, 48 h
[1] = tested on: CCRF-CEM leukemia
[2] = tested on: DU-145 prostate
[3] = tested on: MALME-3M melanoma
[4] = tested on: NCI-H226 lung
[5] = tested on: OVCAR-5 ovarian
[6] = tested on: RPMI-8226 leukemia
[7] = tested on: SF-268 CNS
[8] = tested on: SK-MEL-2 melanoma
[9] = tested on: SK-MEL-5 melanoma
[10] = tested on: UACC-257 melanoma

SMILES	GI50 [1]	TGI [1]	GI50 [2]	TGI [2]	GI50 [3]	TGI [3]	GI50 [4]	TGI [4]	GI50 [5]	TGI [5]	GI50 [6]	TGI [6]	GI50 [7]	TGI [7]	GI50 [8]	TGI [8]	GI50 [9]	TGI [9]	GI50 [10]	TGI [10]
COc1cc(C2=C(C#Cc3ccccc3)COC2=O)cc(OC)c1OC	3.39 µM	59.3 µM	0.293 µM	18 µM	3.72 µM	33.1 µM	1730 nM	4.6 µM	7.89 µM	> 57.9 µM	1340 nM	4.05 µM	4.59 µM	> 100 µM	5.35 µM	> 90.9 µM	2560 nM	20.1 µM	6.17 µM	> 70.4 µM
N#Cc1c(N)nc(N2CCOCC2)c(C#N)c1-c1cccnc1	39.3 µM	> 100 µM	> 100 µM	> 100 µM	37.2 µM	91.4 µM	81800 nM	> 100 µM	25.7 µM	73.5 µM	45500 nM	> 100 µM	> 100 µM	> 100 µM	> 100 µM	> 100 µM	> 100000 nM	> 100 µM	93.1 µM	> 100 µM
CC(=Nc1ccccc1)C1=C(O)C(Cc2ccccc2)NC1=O (stereo unspecified)	0.0431 µM	> 100 µM	0.133 µM	1.29 µM	0.018 µM	> 100 µM	244 nM	> 100 µM	0.0938 µM	> 100 µM	51.5 nM	> 100 µM	0.0586 µM	> 76.2 µM	0.0447 µM	> 31.5 µM	44.6 nM	2.63 µM	> 100 µM	> 100 µM
COc1cc(OC)c(/C=C/c2cnc3ccccc3n2)c(OC)c1		> 10 µM		> 10 µM		> 10 µM		> 10 µM		> 10 µM		> 10 µM		> 10 µM		> 10 µM		> 10 µM		> 10 µM
NC(=O)c1ccc2nc(-c3ccc(Oc4ccc(Cl)cc4)cc3)[nH]c2c1	23.5 µM and 15.7 µM	75 µM and 64.1 µM	35 µM and 13 µM	75 µM and 29.8 µM	32.4 µM and 18.2 µM	75 µM and 33.6 µM	49100 nM and 14000 nM	75 µM and 57.6 µM	> 75 µM and 18.6 µM	> 75 µM and 36.8 µM	> 75000 nM and 10900 nM	> 75 µM and 37.6 µM	36.7 µM and 19.2 µM	75 µM and 46.2 µM	18.3 µM and 21.2 µM	75 µM and 40.2 µM	28700 nM and 7980 nM	75 µM and 23.7 µM	66.7 µM and 18.4 µM	75 µM and 33.5 µM
CC1(C)[C@@H](O[C@@H]2OC[C@@H](O[C@@H]3O[C@H](CO)[C@@H](O)[C@H](O)[C@H]3O[C@@H]3OC[C@@H](O)[C@H](O)[C@H]3O)[C@H](O)[C@H]2O[C@@H]2O[C@H](CO)[C@@H](O)[C@H](O)[C@H]2O)CC[C@]2(C)[C@H]3CC[C@]45OC[C@@]6(CC[C@](C)(C=O)C[C@H]64)[C@H](O)C[C@@]5(C)[C@]3(C)CC[C@@H]12	1.02 µM	3.13 µM	1.09 µM	2.33 µM	0.879 µM	1.74 µM	985 nM	2.11 µM	0.834 µM	1.66 µM	1120 nM	2.56 µM	0.963 µM	1.99 µM	0.886 µM	1.74 µM	2800 nM	5.36 µM	0.92 µM	1.83 µM
CC[C@@H](C(=O)[C@@H](C)[C@@H](O)[C@H](C)[C@@H]1O[C@@H]([C@@H](CC)C(=O)N(CC)CC)CC[C@@H]1C)C1O[C@]2(C=CC(=O)[C@]3(CC[C@@](C)([C@H]4CC[C@](O)(CC)[C@H](C)O4)O3)O2)[C@H](C)C[C@@H]1C (stereo partly specified)	3.01 µM	14.4 µM	3.41 µM	12.6 µM	1.93 µM	4.9 µM	2210 nM	6.71 µM	2.85 µM	10.1 µM	2120 nM	6.42 µM	3.25 µM	80.9 µM	2.71 µM	7.85 µM	1690 nM	3.09 µM	3.17 µM	19.9 µM
Cc1cc(Cl)ccc1NC(=O)c1cc2ccccc2cc1O	1.22 µM	> 100 µM	1.15 µM	> 100 µM	0.342 µM	> 100 µM	930 nM	> 100 µM	4.2 µM	> 100 µM	294 nM	1.18 µM	1.91 µM	> 100 µM	0.432 µM		373 nM	2.43 µM	0.611 µM	3.84 µM
CCCCCCCCCCCC1CCCC(C)N1 (stereo unspecified)	1.45 µM		12.5 µM	26.1 µM	8.03 µM	22.7 µM and 166 µM	16700 nM	36.9 µM and 166 µM	12.5 µM	28.5 µM and 162 µM	1660 nM		11 µM	27.2 µM and 147 µM	5.88 µM		8150 nM	21.4 µM and 93.7 µM	10.3 µM	24.4 µM and 119 µM
Nc1nc(-c2ccccc2)nc2c1[n+]([O-])c1ccccc1[n+]2[O-]		> 100 µM		> 100 µM		> 100 µM		> 100 µM		> 100 µM		> 100 µM		> 100 µM		> 100 µM		> 100 µM		> 100 µM
COc1cc2c(cc1Nc1nc(Nc3ccsc3C(N)=O)c3cc[nH]c3n1)N(C(=O)CN(C)C)CCC2(C)C	0.685 µM	3.78 µM	2.88 µM	5.96 µM	1.48 µM	5.62 µM	763 nM	4.92 µM	0.0412 µM	3.67 µM	1090 nM	5.21 µM	2.6 µM	5.75 µM	0.515 µM	3.63 µM	797 nM	3.89 µM	0.0753 µM	4.34 µM
COc1cc(O)c(C(=O)/C=C/c2ccc(O)cc2)c(O)c1[C@@H]1C[C@H](CCc2ccc(O)cc2)O[C@H](c2ccc(O)cc2)C1	3.28 µM	10.6 µM	3.22 µM	10.9 µM	5.46 µM	28.7 µM	14800 nM	61.2 µM	7.53 µM	19.9 µM	2180 nM	5 µM	3.85 µM	14.7 µM	3.62 µM	17.5 µM	3700 nM	12.8 µM	5.47 µM	20.2 µM
